Legend:
[1] = target: human Glycogen Synthase Kinase-3 beta (hGSK-3β) (Homo sapiens, UniProt P49841); assay: Biochemical hGSK-3Beta assay (33P-ATP phosphorylation of biotinylated peptide substrate); details: 10 μM ATP, 30 minutes at room temperature, read-out: GSK-3β IC50
Experimental: Methods—Biochemical hGSK-3Beta Assay
Compounds were tested for their ability to inhibit human Glycogen Synthase Kinase-3 beta (hGSK-3β) to phosphorylate biotin-[…](pS)EDEEE. Compounds were incubated with 0.5 μCi 33P-ATP, 10 μM ATP, 0.0125 U hGSK-3β (Upstate cell signaling solutions) and 1 μM substrate (biotin-[…](pS)EDEEE) in 50 mM HEPES, 10 mM MgCl2, […], 1 mM DTT, 0.0075% Triton, 2% DMSO (total volume 50 μL) for 30 minutes at room temperature. The incubation was stopped by addition of an equal volume of 100 mM EDTA, 4M NaCl. 80 μL of this mixture was added to streptavidin-coated Flashplates (PerkinElmer). Following a wash step, 33P incorporation was quantified on a MicroBeta microplate liquid scintillation counter (PerkinElmer). IC50's were determined by fitting a sigmoidal dose-response curve to the counts obtained at the different concentrations in GraphPad Prism.

[2] = system: β-catenin-modulated gene transcription; assay: β-Catenin reporter-gene assay (LEF/TCF TOPFLASH/FOPFLASH luciferase); format: cell-based; details: human neuroblastoma cells, 24 h; symbols +/++/+++ not defined
Experimental: Methods—β-Catenin Reporter-Gene Assay
Compounds were tested for their ability to modulate β-catenin-modulated gene transcription in a LEF/TCF (T-cell factor) reporter gene assay. […] human neuroblastoma cells were transiently transfected with 80 ng/well TOPFLASH plasmid (Up-state cell signaling solutions) containing two sets of three copies of the TCF binding site upstream of the Thymidine Kinase minimal promoter and firefly Luciferase open reading frame or with 80 ng/well FOPFLASH plasmid (Upstate cell signaling solutions) containing three copies of a mutated TCF binding site upstream of the Thymidine Kinase minimal promoter and firefly Luciferase open reading frame. In addition all cells were transiently transfected with the 20 ng/well pRL-TK plasmid (Promega) containing the herpes simplex virus thymidine kinase promoter to provide low to moderate levels of Renilla Luciferase expression. Transfection medium was exchanged for serum-free medium containing the test substance and incubated for 24 h at 37 degreed C. The incubation was stopped and quantified using the Dual Glo Luciferase Assay (Promega) as indicated and quantified on a Pherastar reader (BMG).
Firefly Luciferase activity was normalised for Renilla Luciferase activity per well. Subsequently, the normalised TOPFLASH response was compared to the normalised FOPFLASH response, thus giving the LEF/TCF specific signal. […]

human Glycogen Synthase Kinase-3 beta (hGSK-3β), sequence (P49841 whole entry): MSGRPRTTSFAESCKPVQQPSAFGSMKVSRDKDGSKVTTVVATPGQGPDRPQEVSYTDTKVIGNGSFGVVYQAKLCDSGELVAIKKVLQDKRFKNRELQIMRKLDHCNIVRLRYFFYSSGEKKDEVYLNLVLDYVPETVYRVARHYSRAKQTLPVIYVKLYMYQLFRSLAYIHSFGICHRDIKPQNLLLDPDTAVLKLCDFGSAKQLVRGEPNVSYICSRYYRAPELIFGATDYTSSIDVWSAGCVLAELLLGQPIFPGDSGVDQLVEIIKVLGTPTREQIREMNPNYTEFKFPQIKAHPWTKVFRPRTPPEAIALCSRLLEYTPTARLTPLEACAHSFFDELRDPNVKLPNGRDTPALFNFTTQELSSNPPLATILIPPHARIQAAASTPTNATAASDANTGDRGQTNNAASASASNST

With O=C1Nc2cc([N+](=O)[O-])ccc2Nc2nnc(Cl)cc21 [Example 4, 2-Chloro-8-nitro-5,10-dihydro-3,4,5,10-tetraaza-dibenzo[a,d]cyclohepten-11-one] the IC50 [1] was 625 nM.

In the case of NC(=O)c1cccc2c1Nc1ccccc1C(=O)N2 [Example 6, 11-Oxo-10,11-dihydro-5H-dibenzo[b,e][1,4]diazepine-6-carboxylic acid amide, reference compound], the IC50 [1] is reported as 57000 nM and the “Cellular Activity in GSK-3β TOPFLASH assay” value [2] is reported as “INACTIVE”.

O=C1Nc2ncccc2Nc2nnc(Cl)cc21 [Example 7, 8-Chloro-5,10-dihydro-1,5,6,7,11-pentaaza-dibenzo[a,d]cyclohepten-11-one] gave an IC50 [1] of 101 nM.

C=Cc1cc2c(nn1)Nc1ccccc1NC2=O [Example 10, 2-Vinyl-5,10-dihydro-3,4,5,10-tetraaza-dibenzo[a,d]cyclohepten-11-one] was tested, and the IC50 [1] was 45 nM.

Reference: patent US7994160B2, “Pyridazine compounds as glycogen synthase kinase 3 inhibitors” (Abbott GmbH & Co. KG, priority 2005, dated 2011)
